Test: in vivo
Conditions: both sexes, Wistar, rat, iv
Protocol: A MTD study was performed for compound 5 in Wistar rats and Beagle dogs. A total of 25 male and 25 female Wistar rats were received in the experimental room and acclimatized for a period of 5 days prior to randomization. The environmental and housing conditions maintained during the experiment were identical to those described in the pharmacokinetic study. At the start of dosing, rats were between 6 and 7 w.o., and their body weight varied no more than ±20% from the mean body weight for each sex. During randomization, 20 male and 20 female rats were selected for the study, which were randomly allocated to four different dose level groups: D1, D2, D3, and D4. Each group consisted of 5 male and 5 female rats. The remaining 5 male and 5 female rats were returned to the animal facility.
Dose formulations of compound 5 were administered by an intravenous bolus injection through the tail vein, using a sterile needle attached to a graduated syringe. Sterile water also served as a vehicle in the MTD assay. A fixed dose volume of 5 mL/kg b. wt. was used, and individual doses were adjusted according to the most recent recorded body weight of each rat. […]
Rats were subjected to twice-daily monitoring for clinical, mortality, and morbidity signs throughout the study. […] Body weight was recorded on days 1 (before treatment), 4, 8, 11, and 14 of the study. […]

Compound: O=c1[nH]nc(-c2cn(C3CCNCC3)nn2)o1 [compound 5]
- MTD at 14 days: 300 mg/kg
